The test system of experiment [1] is E. coli wild-type GFP strain growth, fluorescence, 24 h. Kind of experiment: wild-type E. coli growth inhibition versus H69 humanized strain – H69 mutant RFP, wild-type GFP, cherry-pick, dose response (AID 977621).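 Note: wild-type GFP and H69 mutant RFP strains grown together 50/50 in each well.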
Experiment [2] relates to E. coli H69 humanized mutant ribosome RFP strain growth, fluorescence, 24 h. The description is as above. The conditions noted are these: test 2.
Setting [3] is: E. coli mixed culture, 24 h, measured here: total growth OD600, test 2.

Records with an inconclusive call do not appear. Activity calls are given as the source filed them.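 Rule for the calls: active = Wild-type ribosome reporter drop at least double the humanized mutant ribosome reporter drop, growth loss under a set limit; inconclusive = no clear call, values can overlap the other calls; inactive = the rest.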

For orientation: AC50 means the midpoint of the concentration-response curve, whichever way the signal moves. For `C=C1c2cc3c(cc2NC(=S)N1Cc1ccccc1)OCO3`, the values for the half-maximal activity concentration (AC50) in experiment [1] (setting [3]) and in experiment [2] were less than 0.6 µM and more than 100 µM, respectively.

Turning to `CSc1nc2nc3c(cc2c(=O)n1-c1ccccc1C)CCCC3`, the AC50 in experiment [1] (setting [3]) and in experiment [2] was more than 100 µM each time.

As for `COc1ccc(-c2cn3cc(Cl)ccc3n2)cc1OC`, the AC50 in experiment [1] is > 100 µM (inactive); in experiment [1] (setting [3]) it was 27.2 µM; in experiment [2] it was 31.4 µM.

Source of the values: PubChem BioAssay AID977621 (Broad Institute, 2014).
